Results published in PubChem BioAssay AID844 (SRMLSC, 2007).
pEC50: −log10 of the molar value. The source made the active and inactive calls. How the calls were made is not given here.

Tested on: MRP1 cells, doxorubicin viability shift, 10 uM compound
Assay: viability protection against doxorubicin, MRP-1 line – cell-based, doxorubicin EC50 shift, dose response (AID 844)
Details: for pEC50: measured here: doxorubicin EC50 with compound

Structure (SMILES)	fold increase in Dox EC50	pEC50
CCOC(=O)c1c(-c2cccc([N+](=O)[O-])c2)csc1NC(=O)C1CCCCC1	0.34 (inactive)	5.74
CC1(C)Cc2c(sc3nnn(Cc4ccc(Cl)cc4)c(=O)c23)CO1	0.85 (inactive)	5.34
CC(=O)Nc1nc(C)c(Oc2ccc(Cl)cc2Cl)c(=O)[nH]1	0.74 (inactive)	5.40
CS(=O)(=O)Nc1nnc(Cc2ccccc2)s1	0.75 (inactive)	5.39
CNC(=S)Nc1ccc(C23CC4CC(CC(C4)C2)C3)cc1	0.7 (inactive)	5.42
CCOC(=O)c1sc(-c2ccc(F)cc2)cc1NC(=O)Nc1ccccc1OC	0.83 (inactive)	5.35
S=C(N/N=C/c1ccc(Cl)cc1)N1CCOCC1	1.22 (inactive)	5.18
COc1cccc(/C=N/NC(=O)CNC(=O)C2COc3ccccc3O2)c1O (stereo not given)	0.12 (inactive)	6.20
O=c1oc(-c2cc3ccccc3o2)nc2sc3c(c12)CCCC3	1.17 (inactive)	5.20
CCOC(=O)c1nnc(-c2ccccc2)nc1Oc1ccccc1Cl	0.99 (inactive)	5.27
CC(NC(=O)CN1CCN(Cc2ccc(Cl)cc2)C1=O)c1ccc2c(c1)OCCO2 (stereo not given)	0.87 (inactive)	5.33
O=C(NC1CCCCCC1)c1nnc(Cc2ccc(Cl)cc2)o1	0.78 (inactive)	5.38
Cc1ccc(/C=N/NC(=O)CSCc2ccc(Cl)cc2)cc1	1.19 (inactive)	5.19
Cc1[nH]c2ccccc2c1C(=O)C(=O)NCCC1=CCCCC1	0.98 (inactive)	5.28
CCN(CC)CCN(Cc1cc2cc(C)cc(C)c2[nH]c1=O)C(=S)NCc1ccco1	0.19 (inactive)	5.99
Cc1cc2nc(/N=C(\N)NC(=O)N3c4ccccc4Sc4ccccc43)nc(C)c2cc1C	1.69	5.04
Cc1cc(C(=O)N/N=C/c2cc(Br)ccc2OC(=O)c2ccccc2)n[nH]1	0.15 (inactive)	6.09
O=C1CC(c2ccccc2)c2cc(O)ccc2O1 (stereo not given)	0.99 (inactive)	5.27
O=C1c2cccc3cccc(c23)C(=O)N1c1ccncc1	1.13 (inactive)	5.22
O=C(Nc1nnc(N2CCCCCC2)s1)c1cc(-c2ccc(Br)cc2)on1	0.91 (inactive)	5.31
Cc1ccc(NC(=O)Cc2csc(-c3ccccc3)n2)cc1F	1.22 (inactive)	5.18
O=C1CSC2=NCN(c3ccccc3)CN12	0.55 (inactive)	5.53
CCOC(=O)c1c(-c2ccc(F)cc2)csc1NC(=O)c1c(-c2ccccc2)noc1C	0.56 (inactive)	5.52
CCOc1ccc(OCC)c(-c2c(=O)n(OCc3ccc(C(C)(C)C)cc3)c3ccccc3[n+]2[O-])c1	0.85 (inactive)	5.34
CCc1ccc(C2CC(c3ccccc3C)n3nc(N)nc3N2)cc1 (stereo not given)	0.57 (inactive)	5.51
CN(Cc1ccccc1)c1oc(COc2ccccc2F)nc1C#N	0.66 (inactive)	5.45
O=C(Nc1ccn(Cc2c(F)c(F)cc(F)c2F)n1)c1ccc(COc2ccc(Cl)cc2Cl)o1	1.01 (inactive)	5.26
Cn1cc(Br)c(C(=O)NNC(=O)c2ccc(Cl)cc2)n1	1.23 (inactive)	5.18
Cc1cccc(CC2S/C(=N/c3ccccn3)NC2=O)c1 (stereo not given)	1.15 (inactive)	5.21
Cc1ccc(C)c2[nH]c(=O)c(CN(Cc3ccco3)S(=O)(=O)c3ccc4c(c3)OCCO4)cc12	0.88 (inactive)	5.32
